According to patent US6503449B1, “Process for the control of microbial contamination in water-based solids suspensions” (Ciba Specialty Chemicals Corporation, priority 1998, dated 2003):

Test system: Pseudomonas putida
Test: Sonication (20 kHz horn probe) of Pigment Red 23 dispersion with biocide, streaking on Nutrient Agar plates
Assay type: cell-based
Parameters: key: −: no bacterial colonies detected; +: light contamination (10^0 and 10^3 cfu/ml); ++: moderate contamination(10^3-10^5 cfu/ml); +++: heavy contamination(>10^5 cfu/ml)
Text: A mixture of Pigment Red 23, available from Ciba Specialty Chemicals(UK) Ltd., 215.5 parts, Emulan OG (RTM) (35% solution in water), available from BASF, 153.7 parts, tributyl phosphate, available from Albright & Wilson, 2 parts, and water, 128.8 parts, are dispersed by re-circulation through a Bachofen KDL200 bead-mill until colouristic properties are within specification of UNISPERSE (RTM) Red RBS-PI, available from Ciba Specialty Chemicals(UK) Ltd., and adjusted to pH 8.0-8.5 with 20% sodium hydroxide solution. This material is identified as containing the Gram negative bacterium, Pseudomonas putida. 50 millilitre aliquots of this dispersion containing levels of glutaraldehyde (pentane-1,5-dialdehyde), available as the trade product Protectol GDA form BASF or Ucarcide from Union Carbide, between 0 parts per million (ppm) and 2000 ppm are sonicated using a Branson MSE sonicator with a 19 mm horn probe resonating at 20 kHz with an amplitude of 6 microns. Sonication is undertaken in a 100 millilitre glass beaker, diameter 38 mm, with magnetic flea agitator and cooled in a water/ice bath to maintain temperature at 28-32° C. Bacterial growth in each sample is assessed at 5 minute intervals by streaking each dispersion on to Nutrient Agar(NA) plates and incubating the plates for a minimum of 48 hours at 30° C. The plates are then examined for bacterial colonies and expressed according to the following notation:
The resistance of the pigment dispersion produced according to the process of the invention to further bacterial growth is recorded by continued observation of the samples of Table 1 over a period of up to 90 days. […]

O=CCCCC=O [glutaraldehyde, pentane-1,5-dialdehyde]
further bacterial growth, samples of Table 1 (10 ppm, Time 1 (days) after sonication): −
further bacterial growth, samples of Table 1 (10 ppm, Time 2 (days) after sonication): −
further bacterial growth, samples of Table 1 (10 ppm, Time 3 (days) after sonication): −
further bacterial growth, samples of Table 1 (10 ppm, Time 7 (days) after sonication): −
further bacterial growth, samples of Table 1 (10 ppm, Time 14 (days) after sonication): −
further bacterial growth, samples of Table 1 (10 ppm, Time 28 (days) after sonication): −
further bacterial growth, samples of Table 1 (10 ppm, Time 90 (days) after sonication): −
bacterial colonies on Nutrient Agar (10 ppm, sonicated 0 mins.): +++ (heavy contamination(>10^5 cfu/ml))
bacterial colonies on Nutrient Agar (10 ppm, sonicated 5 mins.): +++ (heavy contamination(>10^5 cfu/ml))
bacterial colonies on Nutrient Agar (10 ppm, sonicated 10 mins.): +++ (heavy contamination(>10^5 cfu/ml))
bacterial colonies on Nutrient Agar (10 ppm, sonicated 15 mins.): ++ (moderate contamination(10^3-10^5 cfu/ml))
bacterial colonies on Nutrient Agar (10 ppm, sonicated 20 mins.): + (light contamination (10^0 and 10^3 cfu/ml))
bacterial colonies on Nutrient Agar (10 ppm, sonicated 25 mins.): + (light contamination (10^0 and 10^3 cfu/ml))
bacterial colonies on Nutrient Agar (10 ppm, sonicated 30 mins.): −
further bacterial growth, samples of Table 1 (25 ppm, Time 1 (days) after sonication): −
further bacterial growth, samples of Table 1 (25 ppm, Time 2 (days) after sonication): −
further bacterial growth, samples of Table 1 (25 ppm, Time 3 (days) after sonication): −
further bacterial growth, samples of Table 1 (25 ppm, Time 7 (days) after sonication): −
further bacterial growth, samples of Table 1 (25 ppm, Time 14 (days) after sonication): −
further bacterial growth, samples of Table 1 (25 ppm, Time 28 (days) after sonication): −
further bacterial growth, samples of Table 1 (25 ppm, Time 90 (days) after sonication): −
bacterial colonies on Nutrient Agar (25 ppm, sonicated 0 mins.): +++ (heavy contamination(>10^5 cfu/ml))
bacterial colonies on Nutrient Agar (25 ppm, sonicated 5 mins.): ++ (moderate contamination(10^3-10^5 cfu/ml))
bacterial colonies on Nutrient Agar (25 ppm, sonicated 10 mins.): −
bacterial colonies on Nutrient Agar (25 ppm, sonicated 15 mins.): −
bacterial colonies on Nutrient Agar (25 ppm, sonicated 20 mins.): −
bacterial colonies on Nutrient Agar (25 ppm, sonicated 25 mins.): −
bacterial colonies on Nutrient Agar (25 ppm, sonicated 30 mins.): −
further bacterial growth, samples of Table 1 (50 ppm, Time 1 (days) after sonication): −
further bacterial growth, samples of Table 1 (50 ppm, Time 2 (days) after sonication): −
further bacterial growth, samples of Table 1 (50 ppm, Time 3 (days) after sonication): −
further bacterial growth, samples of Table 1 (50 ppm, Time 7 (days) after sonication): −
further bacterial growth, samples of Table 1 (50 ppm, Time 14 (days) after sonication): −
further bacterial growth, samples of Table 1 (50 ppm, Time 28 (days) after sonication): −
further bacterial growth, samples of Table 1 (50 ppm, Time 90 (days) after sonication): −
bacterial colonies on Nutrient Agar (50 ppm, sonicated 0 mins.): +++ (heavy contamination(>10^5 cfu/ml))
bacterial colonies on Nutrient Agar (50 ppm, sonicated 5 mins.): ++ (moderate contamination(10^3-10^5 cfu/ml))
bacterial colonies on Nutrient Agar (50 ppm, sonicated 10 mins.): −
bacterial colonies on Nutrient Agar (50 ppm, sonicated 15 mins.): ++ (moderate contamination(10^3-10^5 cfu/ml))
bacterial colonies on Nutrient Agar (50 ppm, sonicated 20 mins.): −
bacterial colonies on Nutrient Agar (50 ppm, sonicated 25 mins.): −
bacterial colonies on Nutrient Agar (50 ppm, sonicated 30 mins.): −
further bacterial growth, samples of Table 1 (75 ppm, Time 1 (days) after sonication): −
further bacterial growth, samples of Table 1 (75 ppm, Time 2 (days) after sonication): −
further bacterial growth, samples of Table 1 (75 ppm, Time 3 (days) after sonication): −
further bacterial growth, samples of Table 1 (75 ppm, Time 7 (days) after sonication): −
further bacterial growth, samples of Table 1 (75 ppm, Time 14 (days) after sonication): −
further bacterial growth, samples of Table 1 (75 ppm, Time 28 (days) after sonication): −
further bacterial growth, samples of Table 1 (75 ppm, Time 90 (days) after sonication): −
bacterial colonies on Nutrient Agar (75 ppm, sonicated 0 mins.): +++ (heavy contamination(>10^5 cfu/ml))
bacterial colonies on Nutrient Agar (75 ppm, sonicated 5 mins.): −
bacterial colonies on Nutrient Agar (75 ppm, sonicated 10 mins.): −
bacterial colonies on Nutrient Agar (75 ppm, sonicated 15 mins.): −
bacterial colonies on Nutrient Agar (75 ppm, sonicated 20 mins.): −
bacterial colonies on Nutrient Agar (75 ppm, sonicated 25 mins.): −
bacterial colonies on Nutrient Agar (75 ppm, sonicated 30 mins.): −
further bacterial growth, samples of Table 1 (100 ppm, Time 1 (days) after sonication): −
further bacterial growth, samples of Table 1 (100 ppm, Time 2 (days) after sonication): −
further bacterial growth, samples of Table 1 (100 ppm, Time 3 (days) after sonication): −
further bacterial growth, samples of Table 1 (100 ppm, Time 7 (days) after sonication): −
further bacterial growth, samples of Table 1 (100 ppm, Time 14 (days) after sonication): −
further bacterial growth, samples of Table 1 (100 ppm, Time 28 (days) after sonication): −
further bacterial growth, samples of Table 1 (100 ppm, Time 90 (days) after sonication): −
bacterial colonies on Nutrient Agar (100 ppm, sonicated 0 mins.): +++ (heavy contamination(>10^5 cfu/ml))
bacterial colonies on Nutrient Agar (100 ppm, sonicated 5 mins.): + (light contamination (10^0 and 10^3 cfu/ml))
bacterial colonies on Nutrient Agar (100 ppm, sonicated 10 mins.): + (light contamination (10^0 and 10^3 cfu/ml))
bacterial colonies on Nutrient Agar (100 ppm, sonicated 15 mins.): −
bacterial colonies on Nutrient Agar (100 ppm, sonicated 20 mins.): −
bacterial colonies on Nutrient Agar (100 ppm, sonicated 25 mins.): −
bacterial colonies on Nutrient Agar (100 ppm, sonicated 30 mins.): −
further bacterial growth, samples of Table 1 (150 ppm, Time 1 (days) after sonication): −
further bacterial growth, samples of Table 1 (150 ppm, Time 2 (days) after sonication): −
further bacterial growth, samples of Table 1 (150 ppm, Time 3 (days) after sonication): −
further bacterial growth, samples of Table 1 (150 ppm, Time 7 (days) after sonication): −
further bacterial growth, samples of Table 1 (150 ppm, Time 14 (days) after sonication): −
further bacterial growth, samples of Table 1 (150 ppm, Time 28 (days) after sonication): −
further bacterial growth, samples of Table 1 (150 ppm, Time 90 (days) after sonication): −
bacterial colonies on Nutrient Agar (150 ppm, sonicated 0 mins.): +++ (heavy contamination(>10^5 cfu/ml))
bacterial colonies on Nutrient Agar (150 ppm, sonicated 5 mins.): −
bacterial colonies on Nutrient Agar (150 ppm, sonicated 10 mins.): −
bacterial colonies on Nutrient Agar (150 ppm, sonicated 15 mins.): −
bacterial colonies on Nutrient Agar (150 ppm, sonicated 20 mins.): −
bacterial colonies on Nutrient Agar (150 ppm, sonicated 25 mins.): −
bacterial colonies on Nutrient Agar (150 ppm, sonicated 30 mins.): −
further bacterial growth, samples of Table 1 (500 ppm, Time 1 (days) after sonication): −
further bacterial growth, samples of Table 1 (500 ppm, Time 2 (days) after sonication): −
further bacterial growth, samples of Table 1 (500 ppm, Time 3 (days) after sonication): −
further bacterial growth, samples of Table 1 (500 ppm, Time 7 (days) after sonication): −
further bacterial growth, samples of Table 1 (500 ppm, Time 14 (days) after sonication): −
further bacterial growth, samples of Table 1 (500 ppm, Time 28 (days) after sonication): −
further bacterial growth, samples of Table 1 (500 ppm, Time 90 (days) after sonication): −
bacterial colonies on Nutrient Agar (500 ppm, sonicated 0 mins.): +++ (heavy contamination(>10^5 cfu/ml))
bacterial colonies on Nutrient Agar (500 ppm, sonicated 5 mins.): −
bacterial colonies on Nutrient Agar (500 ppm, sonicated 10 mins.): −
bacterial colonies on Nutrient Agar (500 ppm, sonicated 15 mins.): −
bacterial colonies on Nutrient Agar (500 ppm, sonicated 20 mins.): −
bacterial colonies on Nutrient Agar (500 ppm, sonicated 25 mins.): −
bacterial colonies on Nutrient Agar (500 ppm, sonicated 30 mins.): −
further bacterial growth, samples of Table 1 (1000 ppm, Time 1 (days) after sonication): −
further bacterial growth, samples of Table 1 (1000 ppm, Time 2 (days) after sonication): −
further bacterial growth, samples of Table 1 (1000 ppm, Time 3 (days) after sonication): −
further bacterial growth, samples of Table 1 (1000 ppm, Time 7 (days) after sonication): −
further bacterial growth, samples of Table 1 (1000 ppm, Time 14 (days) after sonication): −
further bacterial growth, samples of Table 1 (1000 ppm, Time 28 (days) after sonication): −
further bacterial growth, samples of Table 1 (1000 ppm, Time 90 (days) after sonication): −
bacterial colonies on Nutrient Agar (1000 ppm, sonicated 0 mins.): +++ (heavy contamination(>10^5 cfu/ml))
bacterial colonies on Nutrient Agar (1000 ppm, sonicated 5 mins.): −
bacterial colonies on Nutrient Agar (1000 ppm, sonicated 10 mins.): −
bacterial colonies on Nutrient Agar (1000 ppm, sonicated 15 mins.): −
bacterial colonies on Nutrient Agar (1000 ppm, sonicated 20 mins.): −
bacterial colonies on Nutrient Agar (1000 ppm, sonicated 25 mins.): −
bacterial colonies on Nutrient Agar (1000 ppm, sonicated 30 mins.): −
further bacterial growth, samples of Table 1 (2000 ppm, Time 1 (days) after sonication): −
further bacterial growth, samples of Table 1 (2000 ppm, Time 2 (days) after sonication): −
further bacterial growth, samples of Table 1 (2000 ppm, Time 3 (days) after sonication): −
further bacterial growth, samples of Table 1 (2000 ppm, Time 7 (days) after sonication): −
further bacterial growth, samples of Table 1 (2000 ppm, Time 14 (days) after sonication): −
further bacterial growth, samples of Table 1 (2000 ppm, Time 28 (days) after sonication): −
further bacterial growth, samples of Table 1 (2000 ppm, Time 90 (days) after sonication): −
bacterial colonies on Nutrient Agar (2000 ppm, sonicated 0 mins.): +++ (heavy contamination(>10^5 cfu/ml))
bacterial colonies on Nutrient Agar (2000 ppm, sonicated 5 mins.): −
bacterial colonies on Nutrient Agar (2000 ppm, sonicated 10 mins.): −
bacterial colonies on Nutrient Agar (2000 ppm, sonicated 15 mins.): −
bacterial colonies on Nutrient Agar (2000 ppm, sonicated 20 mins.): −
bacterial colonies on Nutrient Agar (2000 ppm, sonicated 25 mins.): −
bacterial colonies on Nutrient Agar (2000 ppm, sonicated 30 mins.): −
